Experimental data taken from PubChem BioAssay AID330 (DTP/NCI, 2004).
“And” between values parts separate entries of the source, which are not always exact repeats. Identical values can stand only once. Inconclusive results and toxic doses are left out. Square brackets hold non-standard residues; d marks the D form. Peptide text beside a SMILES is read from it. * marks the point of attachment. ξ: configuration not given here. Cbz = O=C(OCc1ccccc1)*; ξNle = CCCCC(N)C(=O)O

Tested on: P388 leukemia ip, CD2F1 mice, survival T/C
Test: NCI In Vivo Anticancer Drug Screen. Data for tumor model P388 Leukemia (intraperitoneal) in CD2F1 (CDF1) mice
Conditions: endpoint: median survival time, higher = longer survival
Summary of the method: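 Mice carrying the transplanted tumor received test compound or vehicle. Survival was recorded in each group, and the value is the treated-group measurement divided by that of the vehicle-treated control group.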

[1] = dose: 60.0 mg/kg/injection, schedule: Q01DX005 (ip), vehicle: saline with Tween-80
[2] = dose: 120.0 mg/kg/injection, schedule: Q01DX005 (ip), vehicle: saline with Tween-80
[3] = dose: 50.0 mg/kg/injection, schedule: Q01DX009 (ip), vehicle: saline with Tween-80
[4] = dose: 100.0 mg/kg/injection, schedule: Q01DX009 (ip), vehicle: saline with Tween-80
[5] = dose: 200.0 mg/kg/injection, schedule: Q01DX009 (ip), vehicle: saline with Tween-80
[6] = dose: 400.0 mg/kg/injection, schedule: Q01DX009 (ip), vehicle: saline with Tween-80
[7] = dose: 240.0 mg/kg/injection, schedule: Q01DX005 (ip), vehicle: saline with Tween-80

**Q.** `CCCCC(NC(=O)OCc1ccccc1)C(=O)NCC(=O)OC` (stereo not given) (Cbz-[ξNle]-Gly-OMe) was tested. Which T/C (dose: 50.0 mg/kg/injection, schedule: Q01DX005 (ip), vehicle: saline with Tween-80) did it give?
**A.** 99 % of control

**Q.** What about the T/C (dose: 100.0 mg/kg/injection, schedule: Q01DX005 (ip), vehicle: saline with Tween-80) of the same compound?
**A.** 100 % of control

**Q.** What about the T/C (dose: 200.0 mg/kg/injection, schedule: Q01DX005 (ip), vehicle: saline with Tween-80) of the same compound?
**A.** 99 % of control

**Q.** What does the source list for `CC[C@@]1(O)C[C@H](OC2CC(N(C)C)C(OC3CC(O)C(OC4CC(O)C(O)C(C)O4)C(C)O3)C(C)O2)c2c(cc3c(c2O)C(=O)c2c(O)ccc(O)c2C3=O)[C@H]1C(=O)OC` (stereo not given in full)?
**A.** T/C (dose: 1.8 mg/kg/injection, schedule: Q04DX003 (ip), vehicle: water): 157 % of control; T/C (dose: 2.7 mg/kg/injection, schedule: Q04DX003 (ip), vehicle: water): 155 % of control; T/C (dose: 3.8 mg/kg/injection, schedule: Q01DX001 (ip), vehicle: other): 163 % of control; T/C (dose: 7.5 mg/kg/injection, schedule: Q01DX001 (ip), vehicle: other): 157 % of control

**Q.** With `CCOP(=S)(OCC)OC(=O)C(C)SSC` (stereo not given) (tested in a mixture with another compound) as the compound, how does the T/C [1] read?
**A.** 101 % of control

**Q.** And the T/C [2]?
**A.** 104 % of control

**Q.** With `CCCCCCCCC(=O)N(C)OC` as the compound, how does the T/C (dose: 25.0 mg/kg/injection, schedule: Q01DX009 (ip), vehicle: saline with Tween-80) read?
**A.** 110 % of control

**Q.** And the T/C [3]?
**A.** 110 % of control

**Q.** What about the T/C [4] of the same compound?
**A.** 105 % of control

**Q.** How did the T/C (dose: 100.0 mg/kg/injection, schedule: Q01DX001 (ip), vehicle: Klucel (hydroxypropylcellulose) (HPC)) turn out when `CC(C)SC(=O)C=C(c1ccccc1)c1ccccc1` was run?
**A.** 95 % of control

**Q.** What about the T/C (dose: 200.0 mg/kg/injection, schedule: Q01DX001 (ip), vehicle: Klucel (hydroxypropylcellulose) (HPC)) of the same compound?
**A.** 96 % of control

**Q.** What about the T/C (dose: 400.0 mg/kg/injection, schedule: Q01DX001 (ip), vehicle: Klucel (hydroxypropylcellulose) (HPC)) of the same compound?
**A.** 100 % of control

**Q.** Which T/C [3] does the source give for `COc1ccc(-c2cc(C(=O)O)c3cc4ccccc4cc3n2)cc1Br` here?
**A.** 94 % of control

**Q.** What about the T/C [4] of the same compound?
**A.** 93 % of control and 97 % of control

**Q.** And the T/C [5]?
**A.** 105 % of control and 87 % of control

**Q.** And the T/C [6]?
**A.** 121 % of control and 89 % of control

**Q.** What about the T/C (dose: 600.0 mg/kg/injection, schedule: Q01DX009 (ip), vehicle: saline with Tween-80) of the same compound?
**A.** 101 % of control

**Q.** What does the source list for `CS(=O)Cc1cc(-c2ccccc2)no1` (stereo not given)?
**A.** T/C [1]: 99 % of control; T/C [2]: 104 % of control; T/C [7]: 97 % of control

**Q.** Which T/C (dose: 50.0 mg/kg/injection, schedule: Q01DX005 (ip), vehicle: Klucel (hydroxypropylcellulose) (HPC)) does the source give for `CCOP(=S)(N/N=C/c1c(CO)cnc(C)c1O)OCC` here?
**A.** 98 % of control

**Q.** And the T/C (dose: 100.0 mg/kg/injection, schedule: Q01DX005 (ip), vehicle: Klucel (hydroxypropylcellulose) (HPC))?
**A.** 102 % of control

**Q.** And the T/C (dose: 200.0 mg/kg/injection, schedule: Q01DX005 (ip), vehicle: Klucel (hydroxypropylcellulose) (HPC))?
**A.** 101 % of control

**Q.** With `CCOC(=O)C1(C)OC1c1ccc([N+](=O)[O-])cc1` (stereo not given) as the compound, how does the T/C (dose: 100.0 mg/kg/injection, schedule: Q04DX003 (ip), vehicle: Klucel (hydroxypropylcellulose) (HPC)) read?
**A.** 97 % of control

**Q.** What about the T/C (dose: 200.0 mg/kg/injection, schedule: Q04DX003 (ip), vehicle: Klucel (hydroxypropylcellulose) (HPC)) of the same compound?
**A.** 94 % of control

**Q.** What about the T/C (dose: 400.0 mg/kg/injection, schedule: Q04DX003 (ip), vehicle: Klucel (hydroxypropylcellulose) (HPC)) of the same compound?
**A.** 100 % of control

**Q.** With `COc1c(Cl)cccc1N=Cc1ccc(C=Nc2cccc(Cl)c2OC)cc1` as the compound, how does the T/C (dose: 50.0 mg/kg/injection, schedule: Q01DX009 (ip), vehicle: saline) read?
**A.** 97 % of control

**Q.** What about the T/C (dose: 100.0 mg/kg/injection, schedule: Q01DX009 (ip), vehicle: saline) of the same compound?
**A.** 90 % of control

**Q.** And the T/C (dose: 200.0 mg/kg/injection, schedule: Q01DX009 (ip), vehicle: saline)?
**A.** 89 % of control

**Q.** Which results are given for `Cc1ccc(-n2c(=O)nc([O-])[n+]3ccccc23)cc1`?
**A.** T/C (dose: 60.0 mg/kg/injection, schedule: Q01DX005 (ip), vehicle: Klucel (hydroxypropylcellulose) (HPC)): 99 % of control; T/C (dose: 120.0 mg/kg/injection, schedule: Q01DX005 (ip), vehicle: Klucel (hydroxypropylcellulose) (HPC)): 98 % of control; T/C (dose: 240.0 mg/kg/injection, schedule: Q01DX005 (ip), vehicle: Klucel (hydroxypropylcellulose) (HPC)): 96 % of control

**Q.** Which T/C (dose: 3.12 mg/kg/injection, schedule: Q01DX005 (ip), vehicle: Klucel (hydroxypropylcellulose) (HPC)) does the source give for `O=C1/C(=C\c2ccccc2)C(NC2CCCCC2)c2ccccc21` (stereo not given) here?
**A.** 109 % of control

**Q.** What about the T/C (dose: 6.25 mg/kg/injection, schedule: Q01DX005 (ip), vehicle: Klucel (hydroxypropylcellulose) (HPC)) of the same compound?
**A.** 100 % of control

**Q.** What about the T/C (dose: 12.5 mg/kg/injection, schedule: Q01DX005 (ip), vehicle: Klucel (hydroxypropylcellulose) (HPC)) of the same compound?
**A.** 107 % of control

**Q.** What about the T/C (dose: 25.0 mg/kg/injection, schedule: Q01DX005 (ip), vehicle: Klucel (hydroxypropylcellulose) (HPC)) of the same compound?
**A.** 107 % of control

**Q.** What does the source list for `Nc1ccc(-c2ccc(C(=O)O)cc2)cc1`?
**A.** T/C [1]: 104 % of control; T/C [2]: 106 % of control; T/C [7]: 109 % of control

**Q.** What does the source list for `Cc1cccnc1NS(=O)(=O)c1ccccc1`?
**A.** T/C [4]: 100 % of control; T/C [5]: 100 % of control; T/C [6]: 100 % of control
